Laboratory results taken from paper PMC6364417, “Kinase inhibitor library screening identifies synergistic drug combinations effective in sensitive and resistant melanoma cells” (Journal of Experimental & Clinical Cancer Research : CR, 2019).
Read-outs that look alike come from different tables or passages of the source.

What was measured:
[1] = test system: A375-GP cells (Dabrafenib-resistant); assay: Dose-response curves and IC50, PrestoBlue cell viability, 72 h; assay type: cell-based, human; details: n.e. = did not suppress growth below 50% in the tested concentration range, read-out: Half-maximal inhibitory concentration value (IC50), Mean
[2] = test system: IGR37-XP cells (Vemurafenib-resistant); assay: Kinase inhibitor library screening, PrestoBlue cell viability, 1 or 10 μM, 72 h; details: IGR37 XP, 72 h
[3] = test system: IGR37 cells (parental); assay: as above; details: IGR37 Parental, 72 h
[4] = test system: A375-XP cells (Vemurafenib-resistant); assay: as above; details: A375 XP, 72 h
[5] = test system: 501Mel-GP cells (Dabrafenib-resistant); assay: as above; details: 501Mel GP, 72 h
[6] = test system: 501Mel-XP cells (Vemurafenib-resistant); assay: as above; details: 501Mel XP, 72 h
[7] = test system: 501Mel cells (parental); assay: as above; details: 501Mel Parental, 72 h
Method in brief: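 Two concentrations of every kinase inhibitor were tested on each melanoma line and its resistant counterparts, and cell survival was quantified by PrestoBlue against untreated wells.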

[8] = test system: IGR37-GP cells (Dabrafenib-resistant); assay: as above; details: IGR37 GP, 72 h
[9] = test system: A375-GP cells (Dabrafenib-resistant); assay: as above; details: A375 GP, 72 h
[10] = test system: A375 cells (parental); assay: as above; details: A375 Parental, 72 h
[11] = test system: A375 cells (parental); assay: Dose-response curves and IC50, PrestoBlue cell viability, 72 h; assay type: cell-based, human; details: read-out: Half-maximal inhibitory concentration value (IC50), Mean
[12] = test system: A375-XP cells (Vemurafenib-resistant); assay: as above; assay type: cell-based, human; details: n.e. = did not suppress growth below 50% in the tested concentration range, read-out: Half-maximal inhibitory concentration value (IC50), Mean
[13] = test system: IGR37-GP cells (Dabrafenib-resistant); assay: as above; details: Homo sapiens, 72 h, read-out: Half-maximal inhibitory concentration (IC50)
Method: All inhibitors used in this study were purchased from Selleck Chemicals (Houston, USA). They were dissolved in DMSO to a stock concentration of 10 mM according to the manufacturer’s instructions and stored at − 80 °C. […] Cell viability was measured with the PrestoBlue Cell Viability Reagent (ThermoFisher Scientific) on a CLARIOstar Monochromator microplate reader (BMG Labtech). Using the GraphPad Prism v5.04 software, the half-maximal inhibitor concentration values (IC50) were determined from the curve using the nonlinear log (inhibitor) vs response-variable slope (four parameters) equation. […] The IC50’s were determined for 3 biological replicates and are listed with their standard deviations.
Values represent the mean of at least three biological replicates; one representative curve of at least 3 biological replicates is depicted. _XP: cells resistant to Vemurafenib (red), _GP: cells resistant to Dabrafenib (green).

[14] = n.e. = did not suppress growth below 50% in the tested concentration range
[15] = Homo sapiens, A-375, n.e. = did not suppress growth below 50% in the tested concentration range

| SMILES | IC50 [1] | cell viability (kinase inhibitor library screening) ([2]; 1μΜ) | cell viability (kinase inhibitor library screening) ([2]; 10μΜ) | cell viability (kinase inhibitor library screening) ([3]; 1μΜ) | cell viability (kinase inhibitor library screening) ([3]; 10μΜ) | cell viability (kinase inhibitor library screening) ([4]; 1μΜ) | cell viability (kinase inhibitor library screening) ([4]; 10μΜ) | cell viability (kinase inhibitor library screening) ([5]; 1μΜ) | cell viability (kinase inhibitor library screening) ([5]; 10μΜ) | cell viability (kinase inhibitor library screening) ([6]; 1μΜ) | cell viability (kinase inhibitor library screening) ([6]; 10μΜ) | cell viability (kinase inhibitor library screening) ([7]; 1μΜ) | cell viability (kinase inhibitor library screening) ([7]; 10μΜ) | cell viability (kinase inhibitor library screening) ([8]; 1μΜ) | cell viability (kinase inhibitor library screening) ([8]; 10μΜ) | cell viability (kinase inhibitor library screening) ([9]; 1μΜ) | cell viability (kinase inhibitor library screening) ([9]; 10μΜ) | cell viability (kinase inhibitor library screening) ([10]; 10μΜ) | cell viability (kinase inhibitor library screening) ([10]; 1μΜ) | IC50 [11, 14] | also measured |
| --- | --- | --- | --- | --- | --- | --- | --- | --- | --- | --- | --- | --- | --- | --- | --- | --- | --- | --- | --- | --- | --- |
| Nc1ncnc2c1c(-c1cnc3[nH]ccc3c1)nn2C1CCCC1 [PP-121, reference compound] | 0.417 µM | 60.1% | 4.3% | 75.3% | 14.0% | 37.9% | 4.5% | 44.0% | 5.9% | 51.0% | 2.4% | 55.7% | 3.0% | 69.2% | 9.1% | 36.1% | 8.1% | 6.5% | 45.3% | 0.55 µM | IC50 [12]: 0.648 µM |
| CCS(=O)(=O)c1cccc(-c2cc(C(=O)NC3CCN(C)CC3)c(C)c3[nH]c4ncc(C)cc4c23)c1 [TAK-901, reference compound] | – | 73.0% | 4.0% | 93.0% | 30.2% | 52.1% | 9.6% | 88.7% | 29.0% | 83.2% | 25.7% | 82.7% | 12.7% | 97.2% | 9.5% | 41.6% | 8.5% | 7.6% | 45.8% | – | IC50 ([1]; Homo sapiens): 0.338 µM; IC50 [11, 15]: 0.398 µM; IC50 ([12]; Homo sapiens): 0.472 µM |
| CC(=O)Nc1cccc(-n2c(=O)n(C3CC3)c(=O)c3c(Nc4ccc(I)cc4F)n(C)c(=O)c(C)c32)c1 [Trametinib] | – | – | – | – | – | – | – | – | – | – | – | – | – | – | – | – | – | – | – | – | IC50 ([1]; Homo sapiens): 0.0012 µM; IC50 [13]: 0.0007 µM; IC50 [11, 15]: 0.0004 µM; IC50 ([12]; Homo sapiens): 0.0024 µM |
| CCC[C@H](NC(=O)/C(C#N)=C/c1cccc(Br)n1)c1ccccc1 [WP1130, reference compound] | 1.58 µM | – | – | – | – | – | – | – | – | – | – | – | – | – | – | – | – | – | – | 1.62 µM | cell viability, IGR37 XP, 10μΜ ([2]; 10μΜ): 1.1%; cell viability, IGR37 XP, 1μΜ ([2]; 1μΜ, in %): 99.1; cell viability, IGR37 Parental, 1μΜ ([3]; 1μΜ, in %): 99.4; cell viability, IGR37 Parental, 10μΜ ([3]; 10μΜ, in %): -1.6; cell viability, A375 XP, 1μΜ ([4]; 1μΜ, in %): 57.6; cell viability, A375 XP, 10μΜ ([4]; 10μΜ, in %): 0.429; cell viability, 501Mel GP, 1μΜ ([5]; 1μΜ, in %): 104.8; cell viability, 501Mel GP, 10μΜ ([5]; 10μΜ, in %): -0.156; cell viability, 501Mel XP, 1μΜ ([6]; 1μΜ, in %): 103.9; cell viability, 501Mel XP, 10μΜ ([6]; 10μΜ, in %): -0.185; cell viability, 501Mel Parental, 1μΜ ([7]; 1μΜ, in %): 93.7; cell viability, 501Mel Parental, 10μΜ ([7]; 10μΜ, in %): 0.6; cell viability, IGR37 GP, 10μΜ ([8]; 10μΜ): 1.9%; cell viability, IGR37 GP, 1μΜ ([8]; 1μΜ, in %): 96.2; cell viability, A375 GP, 1μΜ ([9]; 1μΜ, in %): 87.1; cell viability, A375 GP, 10μΜ ([9]; 10μΜ, in %): 1.1; cell viability, A375 Parental, 1μΜ ([10]; 1μΜ, in %): 89.3; cell viability, A375 Parental, 10μΜ ([10]; 10μΜ, in %): 0.545; IC50 [12]: 1.55 µM |
